Measurements: US12083093B2, “Composition for preventing or treating cellular senescence-related diseases comprising salinomycin as effective component” (RESEARCH COOPERATION FOUNDATION OF YEUNGNAM UNIVERSITY, priority 2018, dated 2024)

Tested on: pulmonary fibrosis induced by bleomycin
Type: in vivo, C57BL/6J mice
Conditions: compared to PBS group
Procedure: Animal experiments were conducted with the approval of the Animal Experimental Ethics Committee, Yeungnam University College of Medicine (YUMC-AEC2018-025). After anesthetizing by injecting 2.5% avertin (Avertin; 0.025 ml/g) into the abdominal cavity of 10-week-old C57BL/6J male mice, 2 mU/g of bleomycin was instilled into the bronchi and injected into the lungs.
From 5 days after bleomycin administration, 2.5 μl of 10 mM salinomycin was diluted in 100 μl phosphate buffer solution at intervals of 3 days and injected intraperitoneally 6 times (Sal group).
Three mice were used for each group, and lungs were excised by sacrifice 22 days after bleomycin injection and fixed in 10% formalin solution or stored frozen in liquid nitrogen.
The tissue fixed in 10% formalin solution was embedded with paraffin and cut into 4 μm to prepare a tissue sample. After removing paraffin from the tissue sample, hematoxylin-eosin staining, trichrome staining, and PAS staining were performed.
The degree of fibrosis was measured by analyzing the degree of collagen staining using the i-Solution™ software program (IMT Inc., Canada) after trichrome staining and the degree of cell senescence in tissue samples was investigated by staining lipofuscin with Sudan black B (Viegas M S, et al., European journal of histochemistry: EJH. 2007). The degree of peritoneal fibrosis was confirmed by measuring the submesothelial thickness of the peritoneal mesothelial cell layer using the NIH Image J program.
In addition, lung tissue samples were prepared, and hematoxylin-eosin staining and trichrome staining were performed to confirm the degree of damage to the lung tissue and the degree of lung fibrosis.

For `CC[C@@H](C(=O)[C@@H](C)[C@@H](O)[C@H](C)[C@@H]1O[C@@H]([C@@H](CC)C(=O)O)CC[C@@H]1C)[C@H]1O[C@]2(C=C[C@@H](O)[C@]3(CC[C@@](C)([C@H]4CC[C@](O)(CC)[C@H](C)O4)O3)O2)[C@H](C)C[C@@H]1C` [salinomycin], the “degree of lung tissue damage” value (hematoxylin-eosin staining, FIG. 8C, 8D) was “statistically significantly reduced”, the body weight (i.p. 6 times at 3-day intervals, FIG. 8B) was “further increased” and the “degree of lung fibrosis” value (trichrome staining, FIG. 8C, 8D) was “statistically significantly reduced”.
